Laboratory results reported in US7981904B2, “Acetyl CoA carboxylase inhibitors” (Takeda Pharmaceutical Company Limited, priority 2008, dated 2011).

What was measured:
Human ACC1 = target: T1, Human ACC1 (Homo sapiens, UniProt Q13085); assay: in vitro enzymatic ACC activity assay (malachite green, absorbance at 620 nm), ACC1; assay type: biochemical; settings: recombinant His-tagged human ACC1, 8 μg/mL; 60 min preincubation, 20 min reaction at 30° C.
T1 construct: made in house; host or cells: SF-9 insect cells (baculovirus, pFAST-BacHTc)
Protocol: (§1) Provided in Example A is an in vitro enzymatic ACC activity assay for activity against ACC. The binding affinity of the test compound to ACC1 or ACC2 is determined by the changes in absorbance (at 620 nm); […]. It should be noted that a variety of other expression systems and hosts are also suitable for the expression of ACC, as would be readily appreciated by one of skill in the art.
A. Purification of Human ACC1
Human ACC1 cDNA was amplified from human liver cDNA by polymerase chain reaction using primers; 5′[…]3′ (SEQ ID NO. 1) and 5′[…]3′ (SEQ ID NO: 2). The amplified DNA fragment was digested by restriction enzyme SalI and NotI, and cloned into pFAST-BacHTc (Invitrogen). This plasmid DNA was used for preparation of recombinant vaculovirus with BAC-TO-BAC Baculovirus Expression System (Invitrogen).
SF-9 cells were infected with the vaculovirus and cultured at 27° C. for 3 days. Harvested cells were homogenized in buffer A (25 mM HEPES (pH7.5), 130 mM NaCl, 1 mM EDTA, 25 mM sodium glycerophosphate, 1 mM sodium orthovanadate, 10% glycerol, complete protease inhibitor), and subjected to ultracentrifuge at 185700×g for 50 min at 4° C. ACC1 protein with 6×His-tag at the N-terminal was purified from the supernatant using Ni-NTA Super Flow Gel (QIAGEN). Eluted protein was dialysed against buffer B (50 mM HEPES (pH 7.5), 300 mM NaCl, 10 mM MgCl2, 10 mM tripotassium citrate, 2 mM dithiothreitol) and concentrated using Vivaspin20 ultrafiltration tube (Sartorius).
(§2) C. Measurement of ACC Activity
(§3) Malachite green solution was prepared by mixing 100 mL of solution A (0.12% malachite green in 5N H2SO4), 25 mL of solution B (7.5% ammonium molybdate) and 2 mL of solution C (11% TWEEN-20).
(§4) ACC1 was diluted to 8 μg/mL in reaction buffer (50 mM HEPES pH7.5, 10 mM MgCl2, 10 mM tripotassium citrate, 2 mM DTT, 0.75 mg/mL fatty acid free BSA) and 10 μL diluted enzyme solution was pored into each well of 384-well clear bottom plate. Test compound was diluted in the reaction buffer and 5 μL of the compound solution was added into each well, and the mixture was incubated at 30° C. for 60 minutes. Reaction was initiated by addition of 5 μL substrate solution (50 mM KHCO3, 200 μM ATP, 200 μM acetyl-CoA). After incubation at 30° C. for 20 minutes, reaction was terminated by addition of 5 μL malachite green solution and absorbance at 620 nm was measured.
(§5) Percent activity at each concentration of compound was calculated from the following equation:
(§6) [formula] where Abs is absorbance, Avg is average.
(§7) Data were subjected to nonlinear regression analysis using GraphPad Prism Software (GraphPad Software Inc.) to obtain IC50 values.

Human ACC2 = target: T2, Human ACC2 (Homo sapiens, UniProt O00763); assay: in vitro enzymatic ACC activity assay (malachite green, absorbance at 620 nm), ACC2; assay type: biochemical; settings: recombinant His-tagged human ACC2, 6.4 μg/mL; same method as ACC1
T2 construct: made in house; host or cells: SF-9 insect cells (baculovirus, pFAST-BacHTa)
Protocol: as §1
B. Purification of Human ACC2
Human ACC2 cDNA except coding region for mitochondria localization sequence was amplified from human skeletal muscle cDNA by polymerase chain reaction using primers; 5′[…]3′ (SEQ ID NO: 3) and 5′[…]3′ (SEQ ID NO: 4). The amplified DNA fragment was digested by SalI and AflIII, and cloned into pFAST-BacHTa (Invitrogen). Preparation of recombinant vaculovirus, infection of the virus to SF-9 cells and purification of recombinant ACC2 protein with 6×His-tag at the N-terminal were performed in the same method as described above.
as §2, §3, §4
ACC2 was diluted to 6.4 μg/mL in reaction buffer, and the activity was measured by the same method as described for ACC1.
as §5, §6, §7

T2 sequence (O00763 117-2458 limits assumed): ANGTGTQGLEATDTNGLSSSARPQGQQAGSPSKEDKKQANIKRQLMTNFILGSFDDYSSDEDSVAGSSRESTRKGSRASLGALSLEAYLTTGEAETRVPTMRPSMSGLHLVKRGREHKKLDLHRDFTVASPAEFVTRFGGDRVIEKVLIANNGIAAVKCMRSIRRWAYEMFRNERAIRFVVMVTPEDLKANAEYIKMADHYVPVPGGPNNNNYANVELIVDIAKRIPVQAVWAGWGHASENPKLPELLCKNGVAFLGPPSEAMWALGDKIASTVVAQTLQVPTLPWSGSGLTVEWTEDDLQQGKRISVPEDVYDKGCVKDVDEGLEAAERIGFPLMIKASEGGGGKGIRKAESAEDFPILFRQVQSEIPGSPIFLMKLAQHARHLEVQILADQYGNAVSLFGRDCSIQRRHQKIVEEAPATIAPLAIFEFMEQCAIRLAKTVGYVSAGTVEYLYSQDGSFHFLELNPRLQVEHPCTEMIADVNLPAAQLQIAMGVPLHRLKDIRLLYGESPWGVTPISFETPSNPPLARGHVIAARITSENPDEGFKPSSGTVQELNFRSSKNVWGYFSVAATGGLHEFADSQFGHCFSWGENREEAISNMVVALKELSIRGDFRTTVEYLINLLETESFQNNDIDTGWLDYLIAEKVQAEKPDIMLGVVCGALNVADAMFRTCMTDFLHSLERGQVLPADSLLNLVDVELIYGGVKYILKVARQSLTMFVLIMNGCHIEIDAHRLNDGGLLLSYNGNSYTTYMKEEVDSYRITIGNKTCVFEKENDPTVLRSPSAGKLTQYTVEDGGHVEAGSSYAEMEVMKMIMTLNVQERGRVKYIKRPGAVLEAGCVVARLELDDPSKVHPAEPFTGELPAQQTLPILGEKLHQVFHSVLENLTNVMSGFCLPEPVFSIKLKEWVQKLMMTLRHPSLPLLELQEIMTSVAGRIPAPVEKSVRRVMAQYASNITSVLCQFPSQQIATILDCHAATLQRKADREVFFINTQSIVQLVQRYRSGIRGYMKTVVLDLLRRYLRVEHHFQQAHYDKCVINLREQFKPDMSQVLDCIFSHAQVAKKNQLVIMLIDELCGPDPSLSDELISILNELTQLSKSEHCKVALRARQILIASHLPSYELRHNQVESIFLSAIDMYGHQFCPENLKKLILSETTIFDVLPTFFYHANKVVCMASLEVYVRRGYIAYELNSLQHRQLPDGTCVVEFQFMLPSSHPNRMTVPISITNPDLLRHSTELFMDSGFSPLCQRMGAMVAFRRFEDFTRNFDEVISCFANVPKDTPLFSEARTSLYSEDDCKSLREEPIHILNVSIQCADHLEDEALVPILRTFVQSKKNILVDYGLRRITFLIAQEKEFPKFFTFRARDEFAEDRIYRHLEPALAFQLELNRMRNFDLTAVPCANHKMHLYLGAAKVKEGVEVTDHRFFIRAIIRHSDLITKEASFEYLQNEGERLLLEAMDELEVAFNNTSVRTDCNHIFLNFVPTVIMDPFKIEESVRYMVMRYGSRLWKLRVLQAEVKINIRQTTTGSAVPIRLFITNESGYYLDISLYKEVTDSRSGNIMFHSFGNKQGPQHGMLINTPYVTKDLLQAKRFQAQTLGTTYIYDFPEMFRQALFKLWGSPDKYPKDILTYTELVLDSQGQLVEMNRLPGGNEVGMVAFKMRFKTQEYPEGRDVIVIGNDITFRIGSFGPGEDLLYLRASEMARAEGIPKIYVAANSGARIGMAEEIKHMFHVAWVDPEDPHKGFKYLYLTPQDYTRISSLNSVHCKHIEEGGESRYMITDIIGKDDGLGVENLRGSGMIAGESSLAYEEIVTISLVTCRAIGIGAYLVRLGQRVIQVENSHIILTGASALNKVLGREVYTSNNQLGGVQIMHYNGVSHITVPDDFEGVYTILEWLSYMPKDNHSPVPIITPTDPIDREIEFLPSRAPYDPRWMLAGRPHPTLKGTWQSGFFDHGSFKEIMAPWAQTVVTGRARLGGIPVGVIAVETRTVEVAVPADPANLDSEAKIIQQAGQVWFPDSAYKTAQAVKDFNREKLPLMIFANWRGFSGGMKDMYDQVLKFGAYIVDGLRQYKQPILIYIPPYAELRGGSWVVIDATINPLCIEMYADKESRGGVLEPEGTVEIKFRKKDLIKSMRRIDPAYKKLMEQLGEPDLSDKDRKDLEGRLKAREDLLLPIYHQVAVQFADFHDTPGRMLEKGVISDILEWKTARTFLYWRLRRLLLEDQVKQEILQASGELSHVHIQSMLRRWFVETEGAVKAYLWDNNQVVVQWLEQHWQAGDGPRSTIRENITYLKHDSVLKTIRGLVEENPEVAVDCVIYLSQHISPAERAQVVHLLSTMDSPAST

| Structure (SMILES) | IC50 (Human ACC1) | IC50 (Human ACC2) |
| --- | --- | --- |
| CCNC(=O)Nc1sc2ccccc2c1C(=O)N1CCC2(CC1)N=C(CSC)NC2=O [Compound 3, 1-ethyl-3-(3-(2-(methylthiomethyl)-4-oxo-1,3,8-triazaspiro[4.5]dec-1-enecarbonyl)benzo[b]thiophen-2-yl)urea] | 1 to 10 µM | 1 to 10 µM |
| CCNC(=O)Nc1sc2ccccc2c1C(=O)N1CCC2(CC1)N=C(CS(C)(=O)=O)NC2=O [Compound 4, 1-ethyl-3-(3-(2-(methylsulfonylmethyl)-4-oxo-1,3,8-triazaspiro[4.5]dec-1-enecarbonyl)benzo[b]thiophen-2-yl)urea] | > 10 µM | 1 to 10 µM |
| CCNC(=O)Nc1sc2ccccc2c1C(=O)N1CCC2(CC1)N=C(CN1C(=O)CCC1=O)NC2=O [Compound 5, 1-(3-(2-((2,5-dioxopyrrolidin-1-yl)methyl)-4-oxo-1,3,8-triazaspiro[4.5]dec-1-enecarbonyl)benzo[b]thiophen-2-yl)-3-ethylurea] | > 10 µM | > 10 µM |
| CCNC(=O)Nc1sc2ccccc2c1C(=O)N1CCC(N)(C#N)CC1 [Compound 6, 1-(3-(4-amino-4-cyanopiperidine-1-carbonyl)benzo[b]thiophen-2-yl)-3-ethylurea] | > 10 µM | > 10 µM |
| CCNC(=O)Nc1sc2ccccc2c1C(=O)N1CCC(N)(C(N)=O)CC1 [Compound 7, 4-amino-1-(2-(3-ethylureido)benzo[b]thiophene-3-carbonyl)piperidine-4-carboxamide] | > 10 µM | > 10 µM |
| CCNC(=O)Nc1sc2ccccc2c1C(=O)N1CCC2(CC1)N=C(CCl)NC2=O [Compound 8, 1-(3-(2-(chloromethyl)-4-oxo-1,3,8-triazaspiro[4.5]dec-1-enecarbonyl)benzo[b]thiophen-2-yl)-3-ethylurea] | > 10 µM | 1 to 10 µM |
| CCNC(=O)Nc1sc2c(OC)cccc2c1C(=O)N1CCC2(CC1)N=C(CCl)NC2=O [Compound 9, 1-(3-(2-(chloromethyl)-4-oxo-1,3,8-triazaspiro[4.5]dec-1-enecarbonyl)-7-methoxybenzo[b]thiophen-2-yl)-3-ethylurea] | 1 to 10 µM | 1 to 10 µM |
| CCNC(=O)Nc1sc2ccccc2c1C(=O)N1CCC2(CC1)N=C(CCC(=O)OCC)NC2=O [Compound 10, ethyl 3-(8-(2-(3-ethylureido)benzo[b]thiophene-3-carbonyl)-4-oxo-1,3,8-triazaspiro[4.5]dec-1-en-2-yl)propanoate] | 1 to 10 µM | 1 to 10 µM |
| CCNC(=O)Nc1sc2c(OC)cccc2c1C(=O)N1CCC2(CC1)N=C(CCC(=O)OCC)NC2=O [Compound 11, ethyl 3-(8-(2-(3-ethylureido)-7-methoxybenzo[b]thiophene-3-carbonyl)-4-oxo-1,3,8-triazaspiro[4.5]dec-1-en-2-yl)propanoate] | < 1 µM | < 1 µM |
| CCNC(=O)Nc1sc2ccccc2c1C(=O)N1CCC2(CC1)N=C(CCC(=O)N(CC)CC)NC2=O [Compound 12, N,N-diethyl-3-(8-(2-(3-ethylureido)benzo[b]thiophene-3-carbonyl)-4-oxo-1,3,8-triazaspiro[4.5]dec-1-en-2-yl)propanamide] | 1 to 10 µM | 1 to 10 µM |
| CCNC(=O)Nc1sc2ccccc2c1C(=O)N1CCC2(CC1)N=C(CCC(=O)N1CCCCC1)NC2=O [Compound 13, 1-ethyl-3-(3-(4-oxo-2-(3-oxo-3-(piperidin-1-yl)propyl)-1,3,8-triazaspiro[4.5]dec-1-enecarbonyl)benzo[b]thiophen-2-yl)urea] | 1 to 10 µM | < 1 µM |
| CCNC(=O)Nc1sc2ccccc2c1C(=O)N1CCC2(CC1)N=CNC2=O [Compound 14, 1-ethyl-3-(3-(4-oxo-1,3,8-triazaspiro[4.5]dec-1-enecarbonyl)benzo[b]thiophen-2-yl)urea] | > 10 µM | > 10 µM |
| CCCCC1=NC2(CCN(C(=O)c3c(NC(=O)NCC)sc4ccccc34)CC2)C(=O)N1 [Compound 15, 1-(3-(2-butyl-4-oxo-1,3,8-triazaspiro[4.5]dec-1-enecarbonyl)benzo[b]thiophen-2-yl)-3-ethylurea] | 1 to 10 µM | < 1 µM |
| CCNC(=O)Nc1sc2c(OC)cccc2c1C(=O)N1CCC2(CC1)N=C(C(C)C)NC2=O [Compound 16, 1-ethyl-3-(3-(2-isopropyl-4-oxo-1,3,8-triazaspiro[4.5]dec-2-enecarbonyl)-7-methoxybenzo[b]thiophen-2-yl)urea] | 1 to 10 µM | < 1 µM |
| CCCCC1=NC2(CCN(C(=O)c3c(NC(=O)NCC)sc4c(OC)cccc34)CC2)C(=O)N1 [Compound 17, 1-(3-(2-butyl-4-oxo-1,3,8-triazaspiro[4.5]dec-1-enecarbonyl)-7-methoxybenzo[b]thiophen-2-yl)-3-ethylurea] | < 1 µM | < 1 µM |
| CCNC(=O)Nc1sc2c(OC)cccc2c1C(=O)N1CCC2(CC1)NC(c1ccccc1)=NC2=O [Compound 18, 1-ethyl-3-(7-methoxy-3-(4-oxo-2-phenyl-1,3,8-triazaspiro[4.5]dec-2-enecarbonyl)benzo[b]thiophen-2-yl)urea] | 1 to 10 µM | < 1 µM |
| CCCCN1C=NC2(CCN(C(=O)c3c(NC(=O)NCC)sc4ccccc34)CC2)C1=O [Compound 20, 1-(3-(3-butyl-4-oxo-1,3,8-triazaspiro[4.5]dec-1-enecarbonyl)benzo[b]thiophen-2-yl)-3-ethylurea] | > 10 µM | 1 to 10 µM |
| CCNC(=O)Nc1sc2ccccc2c1C(=O)N1CCC2(CC1)N=C(CSc1ccc(F)cc1)NC2=O [Compound 21, 1-ethyl-3-(3-(2-((4-fluorophenylthio)methyl)-4-oxo-1,3,8-triazaspiro[4.5]dec-1-enecarbonyl)benzo[b]thiophen-2-yl)urea] | 1 to 10 µM | 1 to 10 µM |
| CCNC(=O)Nc1sc2ccccc2c1C(=O)N1CCC2(CC1)N=C(CSC(C)C)NC2=O [Compound 22, 1-ethyl-3-(3-(2-(isopropylthiomethyl)-4-oxo-1,3,8-triazaspiro[4.5]dec-1-enecarbonyl)benzo[b]thiophen-2-yl)urea] | 1 to 10 µM | < 1 µM |
| CCNC(=O)Nc1sc2ccccc2c1C(=O)N1CCC2(CC1)N=C(C[S+]([O-])C(C)C)NC2=O (stereo not shown) [Compound 23, 1-ethyl-3-(3-(2-(isopropylsulfinylmethyl)-4-oxo-1,3,8-triazaspiro[4.5]dec-1-enecarbonyl)benzo[b]thiophen-2-yl)urea] | > 10 µM | < 1 µM |
| CCNC(=O)Nc1sc2ccccc2c1C(=O)N1CCC2(CC1)N=C(CS(=O)(=O)C(C)C)NC2=O [Compound 24, 1-ethyl-3-(3-(2-(isopropylsulfonylmethyl)-4-oxo-1,3,8-triazaspiro[4.5]dec-1-enecarbonyl)benzo[b]thiophen-2-yl)urea] | 1 to 10 µM | < 1 µM |
| CCNC(=O)Nc1sc2ccccc2c1C(=O)N1CCC2(CC1)N=C(COc1ccccc1OC)NC2=O [Compound 25, 1-ethyl-3-(3-(2-((2-methoxyphenoxy)methyl)-4-oxo-1,3,8-triazaspiro[4.5]dec-1-enecarbonyl)benzo[b]thiophen-2-yl)urea] | 1 to 10 µM | < 1 µM |
| CCNC(=O)Nc1sc2ccccc2c1C(=O)N1CCC2(CC1)N=C(COc1ccccc1C#N)NC2=O [Compound 26, 1-(3-(2-((2-cyanophenoxy)methyl)-4-oxo-1,3,8-triazaspiro[4.5]dec-1-enecarbonyl)benzo[b]thiophen-2-yl)-3-ethylurea] | > 10 µM | < 1 µM |
